{
  "source": "ChEMBL document CHEMBL5360538",
  "about": "“Recent updates on 1,2,3-triazole-containing hybrids with in vivo therapeutic potential against cancers: A mini-review” (Eur J Med Chem, 2023)",
  "key": {"BGC-823 [1]": {"tested_on": "BGC-823", "experiment": "Antiproliferative activity against human BGC-823 cells assessed as inhibition of cell growth incubated for 72 hrs by MTT assay", "type": "functional, cell-based", "conditions": "BGC-823, 72 h"}, "MGC-803 [2]": {"tested_on": "MGC-803", "experiment": "Antiproliferative activity against human MGC-803 cells assessed as inhibition of cell growth incubated for 72 hrs by MTT assay", "type": "functional, cell-based", "conditions": "MGC-803, 72 h"}, "SGC-7901 [3]": {"tested_on": "SGC-7901", "experiment": "Antiproliferative activity against human SGC-7901 cells assessed as inhibition of cell growth incubated for 72 hrs by MTT assay", "type": "functional, cell-based", "conditions": "SGC-7901, 72 h"}, "MGC-803 [4]": {"tested_on": "MGC-803", "experiment": "Antitumor activity against human MGC-803 cells xenografted in BALB/c nude mouse model assessed as inhibition of tumor growth at 60 mg/kg, IG administered daily for 21 days relative to control", "type": "functional", "conditions": "MGC-803, po, 504 h, time 21 day"}, "BGC-823 [5]": {"tested_on": "BGC-823", "experiment": "Potency index, ratio of 5-fluorouracil IC50 to test compound IC50 for antiproliferative activity against human BGC-823 cells assessed as inhibition of cell growth incubated for 72 hrs by MTT assay", "type": "functional"}, "MGC-803 [6]": {"tested_on": "MGC-803", "experiment": "Potency index, ratio of 5-fluorouracil IC50 to test compound IC50 for antiproliferative activity against human MGC-803 cells assessed as inhibition of cell growth incubated for 72 hrs by MTT assay", "type": "functional"}, "SGC-7901 [7]": {"tested_on": "SGC-7901", "experiment": "Potency index, ratio of 5-fluorouracil IC50 to test compound IC50 for antiproliferative activity against human SGC-7901 cells assessed as inhibition of cell growth incubated for 72 hrs by MTT assay", "type": "functional"}, "A549 [8]": {"tested_on": "A549", "experiment": "Antiproliferative activity against human A549 cells assessed as inhibition of cell growth by MTT assay", "type": "functional, cell-based"}, "[9]": {"experiment": "Antiproliferative activity against human IMR-90 cells assessed as inhibition of cell growth by MTT assay", "type": "toxicity, cell-based"}, "A549 [10]": {"tested_on": "A549", "experiment": "Antitumor activity against human A549 cells xenografted in zebrafish model assessed as reduction in tumor focal area at 2.5 uM relative to control", "type": "functional", "design": "scale not given: the % may be the effect or the level left"}, "[11]": {"experiment": "Antiproliferative activity against BCRP-mediated Topotecan-resistant HEK293/R2 cells assessed as inhibition of cell growth incubated for 5 days by MTS assay", "type": "functional, cell-based", "conditions": "Homo sapiens, HEK293/R2, 120 h"}, "[12]": {"experiment": "Antiproliferative activity against BCRP-mediated human Topotecan-resistant MCF7/MX100 cells assessed as inhibition of cell growth incubated for 5 days by MTS assay", "type": "functional, cell-based", "conditions": "MCF7/MX100, 120 h"}, "[13]": {"experiment": "Antiproliferative activity against BCRP-mediated human Topotecan-resistant S1M180 cells assessed as inhibition of cell growth incubated for 5 days by MTS assay", "type": "functional, cell-based", "conditions": "120 h"}, "[14]": {"experiment": "Antiproliferative activity against BCRP-mediated human Doxorubicin-resistant S1M180 cells assessed as inhibition of cell growth incubated for 5 days by MTS assay", "type": "functional, cell-based", "conditions": "S1-M1-80, 120 h"}, "[15]": {"experiment": "Antiproliferative activity against […]-mediated human Doxorubicin-resistant 2008/MRP1 cells assessed as inhibition of cell growth incubated for 5 days by MTS assay", "type": "functional, cell-based, Doxorubicin-resistant 2008/MRP1 cell", "conditions": "2008/MRP1, 120 h"}, "[16]": {"experiment": "AUC(0 to infinity) in BALB/c mouse at 45 mg/kg, ip measured up to 24 hrs", "type": "ADME, organism-based", "design": "dose 45 mg/kg, time < 24 hrs, route ip", "conditions": "in vivo"}, "[17]": {"experiment": "Tmax in BALB/c mouse at 45 mg/kg, ip measured up to 24 hrs", "type": "ADME, organism-based", "conditions": "in vivo"}, "[18]": {"experiment": "Cmax in BALB/c mouse at 45 mg/kg, ip measured up to 24 hrs", "type": "ADME, organism-based", "design": "time < 24 hrs, dose 45 mg/kg, route ip", "conditions": "in vivo"}, "[19]": {"experiment": "Half life in BALB/c mouse at 45 mg/kg, ip measured up to 24 hrs", "type": "ADME, organism-based", "conditions": "in vivo"}, "[20]": {"experiment": "Antitumor activity against human Topotecan-resistant S1M180 cells over expressing BCRP xenografted in BALB/c nude mouse model assessed as reduction in tumor volume at 45 mg/kg, ip administered every 2 days for 6 times relative to control", "type": "functional, Topotecan-resistant S1M180 cell", "design": "scale not given: the % may be the effect or the level left", "conditions": "time 12 day"}, "[21]": {"experiment": "Antitumor activity against human Topotecan-resistant S1M180 cells over expressing BCRP xenografted in BALB/c nude mouse model assessed as fold change in topotecan level at 45 mg/kg, ip administered every 2 days for 6 times relative to control", "type": "functional, Topotecan-resistant S1M180 cell", "conditions": "time 12 day"}, "Hep 3B2": {"tested_on": "Hep 3B2", "experiment": "Antiproliferative activity against human Hep3B cells assessed as inhibition of cell growth incubated for 72 hrs by MTT assay", "type": "functional, cell-based"}, "HepG2 [22]": {"tested_on": "HepG2", "experiment": "Antiproliferative activity against human HepG2 cells assessed as inhibition of cell growth incubated for 72 hrs by MTT assay", "type": "functional, cell-based", "conditions": "HepG2, 72 h"}, "H22 [23]": {"tested_on": "H22", "experiment": "Antitumor activity against […] cells xenografted in BALB/c mouse model assessed as inhibition of tumor growth at 15 mg/kg, ip administered every 2 days for 15 days relative to control", "type": "functional", "conditions": "H22, 360 h, time 15 day"}, "H22 [24]": {"tested_on": "H22", "experiment": "Antitumor activity against […] cells xenografted in BALB/c mouse model assessed as inhibition of tumor growth at 45 mg/kg, ip administered every 2 days for 15 days relative to control", "type": "functional", "conditions": "H22, 360 h, time 15 day"}, "NCI-H460": {"tested_on": "NCI-H460", "experiment": "Antiproliferative activity against human NCI-H460 cells assessed as inhibition of cell growth by MTT assay", "type": "functional, cell-based"}, "SGC-7901 [25]": {"tested_on": "SGC-7901", "experiment": "Antiproliferative activity against human SGC-7901 cells assessed as inhibition of cell growth by MTT assay", "type": "functional, cell-based"}, "Bel-7402": {"tested_on": "Bel-7402", "experiment": "Antiproliferative activity against human Bel-7402 cells assessed as inhibition of cell growth by MTT assay", "type": "functional, cell-based"}, "HepG2 [26]": {"tested_on": "HepG2", "experiment": "Antiproliferative activity against human HepG2 cells assessed as inhibition of cell growth by MTT assay", "type": "functional, cell-based"}, "MDA-MB-231": {"tested_on": "MDA-MB-231", "experiment": "Antiproliferative activity against human MDA-MB-231 cells assessed as inhibition of cell growth by MTT assay", "type": "functional, cell-based"}, "HT-29": {"tested_on": "HT-29", "experiment": "Antiproliferative activity against human HT-29 cells assessed as inhibition of cell growth by MTT assay", "type": "functional, cell-based"}, "A549/TR": {"tested_on": "A549/TR", "experiment": "Antiproliferative activity against taxol-resistant human A549/Taxol cells assessed as inhibition of cell growth by MTT assay", "type": "functional, cell-based"}, "A549 [27]": {"tested_on": "A549", "experiment": "Antitumor activity against human A549 cells xenografted in BALB/c nude mouse model assessed as inhibition of tumor growth at 80 mg/kg, ip administered every other day for 7 times relative to control", "type": "functional"}, "MCF7": {"tested_on": "MCF7", "experiment": "cells", "conditions": "Homo sapiens"}, "4T1": {"tested_on": "4T1", "experiment": "Antitumor activity against mouse 4T1 cells implanted mouse model assessed as inhibition of tumor growth at 15 mg/kg, ip relative to control", "type": "functional"}},
  "data": [
    {"smiles": "Cc1cc(=O)oc2cc(OCc3cn(-c4ccc(S(N)(=O)=O)cc4)nn3)ccc12", "values": [
      {"measurement": "IC50", "setting": "BGC-823 [1]", "result": 400, "unit": "nM"},
      {"measurement": "IC50", "setting": "MGC-803 [2]", "result": 3400, "unit": "nM"},
      {"measurement": "IC50", "setting": "SGC-7901 [3]", "result": 3500, "unit": "nM"},
      {"measurement": "inhibition in vivo at 60 mg/kg", "setting": "MGC-803 [4]", "result": 64.2, "unit": "%"},
      {"measurement": "Ratio IC50", "setting": "BGC-823 [5]", "result": 4.1},
      {"measurement": "Ratio IC50", "setting": "MGC-803 [6]", "result": 4.1},
      {"measurement": "Ratio IC50", "setting": "SGC-7901 [7]", "result": 4.1}
    ]},
    {"smiles": "COc1cc(/C=C/C(=O)C(Cc2cn(Cc3ccc(Cl)c(Cl)c3)nn2)C(=O)/C=C/c2ccc(O)c(OC)c2)ccc1O", "values": [
      {"measurement": "IC50", "setting": "A549 [8]", "result": 2270, "unit": "nM"},
      {"measurement": "IC50", "setting": "[9]", "result": "> 100000", "unit": "nM"},
      {"measurement": "Activity", "setting": "A549 [10]", "result": 39.07, "unit": "%"}
    ]},
    {"smiles": "COC(=O)c1cccc(COc2c(-c3ccc(OCCOCCc4cn(CN(Cc5ccccc5)Cn5cc(CCOCCOc6ccc(-c7oc8ccccc8c(=O)c7OCc7cccc(C(=O)OC)c7)cc6)nn5)nn4)cc3)oc3ccccc3c2=O)c1", "values": [
      {"measurement": "EC50", "setting": "[11]", "result": 3.3, "unit": "nM"},
      {"measurement": "EC50", "setting": "[12]", "result": 3.3, "unit": "nM"},
      {"measurement": "EC50", "setting": "[13]", "result": 3.3, "unit": "nM"},
      {"measurement": "EC50", "setting": "[14]", "result": 3.3, "unit": "nM"},
      {"measurement": "EC50", "setting": "[15]", "result": 3.3, "unit": "nM"},
      {"measurement": "AUC(0-inf)", "setting": "[16]", "result": 83500, "unit": "ng·h/mL"},
      {"measurement": "Tmax", "setting": "[17]", "result": 3, "unit": "h"},
      {"measurement": "Cmax", "setting": "[18]", "result": 15700, "unit": "ng/mL"},
      {"measurement": "half-life", "setting": "[19]", "result": 10.6, "unit": "h"},
      {"measurement": "Activity", "setting": "[20]", "result": 40, "unit": "%"},
      {"measurement": "fold change (FC)", "setting": "[21]", "result": 2}
    ]},
    {"smiles": "COc1cc(C(=O)c2nn(-c3ccccc3)nc2N2CCC(N)CC2)cc(OC)c1OC", "values": [
      {"measurement": "IC50", "setting": "Hep 3B2", "result": 40.9, "unit": "nM"},
      {"measurement": "IC50", "setting": "HepG2 [22]", "result": 59.6, "unit": "nM"},
      {"measurement": "inhibition in vivo at 15 mg/kg", "setting": "H22 [23]", "result": 66, "unit": "%"},
      {"measurement": "inhibition in vivo at 45 mg/kg", "setting": "H22 [24]", "result": 82, "unit": "%"}
    ]},
    {"smiles": "COc1cc(C(=O)c2nn(-c3ccccc3F)nc2N2CC(O)C2)cc(OC)c1OC", "values": [
      {"measurement": "IC50", "setting": "NCI-H460", "result": 65.4, "unit": "nM"},
      {"measurement": "IC50", "setting": "A549 [8]", "result": 63, "unit": "nM"},
      {"measurement": "IC50", "setting": "SGC-7901 [25]", "result": 63, "unit": "nM"},
      {"measurement": "IC50", "setting": "Bel-7402", "result": 65.4, "unit": "nM"},
      {"measurement": "IC50", "setting": "HepG2 [26]", "result": 65.4, "unit": "nM"},
      {"measurement": "IC50", "setting": "MDA-MB-231", "result": 65.4, "unit": "nM"},
      {"measurement": "IC50", "setting": "HT-29", "result": 65.4, "unit": "nM"},
      {"measurement": "IC50", "setting": "A549/TR", "result": 65.4, "unit": "nM"},
      {"measurement": "inhibition in vivo at 80 mg/kg", "setting": "A549 [27]", "result": 60, "unit": "%"},
      {"measurement": "IC50", "setting": "MCF7", "result": 63, "unit": "nM"}
    ]},
    {"smiles": "Clc1ccc(N/N=C/c2cn(-c3cc(Cl)cc(Cl)c3)nn2)cc1", "values": [
      {"measurement": "inhibition in vivo at 15 mg/kg", "setting": "4T1", "result": "> 60", "unit": "%"},
      {"measurement": "IC50", "setting": "MCF7", "result": 3200, "unit": "nM"}
    ]}
  ]
}
